Results reported in patent US10286034B2, “Uses of bremelanotide in therapy for female sexual dysfunction” (Palatin Technologies, Inc., priority 2012, dated 2019).
Marks after values point to notes of the source that are not given here.

Assays:
Format in all cases: in vivo, human
[1] = Example 1: ambulatory blood pressure monitoring after in-clinic dose; conditions: for Pulse: treatment group difference (from placebo) in mean change: in bpm; for DBP: treatment group difference (from placebo) in mean change / SBP: treatment group difference (from placebo) in mean change: in mmHg (unit assumed); for HR-BP Product: treatment group difference (from placebo) in mean change: in mmHg·bpm (unit assumed)
Description: Ambulatory blood pressure monitoring was conducted following both placebo and randomized treatment group in-clinic administrations. Three periods of ambulatory blood pressure monitoring were included, the first period was from before to 24 hours after a single, in-clinic dose of placebo (to establish a baseline); the second and third periods occurred from before to 24 hours after each of 2 single, in-clinic doses of double-blind treatment, administered within 14 days of each other. Blood samples for pharmacokinetic analysis were collected before and at 0.5, 1.0, and 2.0 hours after each in-clinic bremelanotide single-dose treatment (double-blind only), to permit analysis of concentration-response relationships.
Mean changes in blood pressure were characterized in all subjects based on sequential supervised dosing of single-blind subcutaneous placebo and two doses of randomized study drug. The primary analysis for mean changes was the difference between treatment groups in the change from single-blind placebo to randomized drug (Visit 2 vs. Visits 5/7). There were between 86 to 100 subjects in each dose group.
Although there were an increased number of outliers for maximal changes from baseline in systolic blood pressure in drug-treated patients, the duration of these events was quite limited. The interrogation interval during ambulatory blood pressure monitoring assessments of 15 minutes allowed definition of the maximal duration of such excursions. […] The clinical significance of such changes, if any, is small.

[2] = Intranasal 10 mg Phase 2 studies in women with FSAD: plasma concentration 30 minutes post dose; conditions: 10 mg intranasal
Description: In the bremelanotide premenopausal arm, 42.5% of the subjects were discontinued due to hypertension, nausea, vomiting or myalgia. Subjects received a 10 mg intranasal dose of bremelanotide, with premenopausal subjects determined to have a mean plasma concentration of 88.5±51.9 ng/mL and a % CV of 58.6, and postmenopausal subjects determined to have a mean plasma concentration of 93.2±68.5 ng/mL and a % CV of 73.5. The minimum and maximum plasma concentration levels for all women at thirty minutes post dose range from 0.0 ng/mL to 207.0 ng/mL.
In the intranasal study, premenopausal women self-administered a 10 mg intranasal dose.

[3] = Pharmacokinetics of subcutaneous administration in healthy adult males; conditions: after subcutaneous administration
Source text: Results of Tmax values were compared between subcutaneous administration (SC) and intranasal (IN) administration of various doses of bremelanotide, as shown in FIG. 1.

[4] = Subcutaneous trials in males: vomiting and tolerability; conditions: for subjects experiencing vomiting (mild or moderate): males
[5] = 0.75 mg SC, interval 0-24 h, V5
[6] = 0.75 mg SC, interval 0-24 h, V7
[7] = 0.75 mg SC, interval 8-24 h, V5
[8] = 0.75 mg SC, interval 8-24 h, V7
[9] = 1.25 mg SC, interval 0-24 h, V5
[10] = 1.25 mg SC, interval 0-24 h, V7
[11] = 1.25 mg SC, interval 8-24 h, V5
[12] = 1.25 mg SC, interval 8-24 h, V7
[13] = 1.75 mg SC, interval 0-24 h, V5
[14] = 1.75 mg SC, interval 0-24 h, V7
[15] = 1.75 mg SC, interval 8-24 h, V5
[16] = 1.75 mg SC, interval 8-24 h, V7
[17] = all women, thirty minutes post dose

CCCC[C@H](NC(C)=O)C(=O)N[C@H]1CC(=O)NCCCC[C@@H](C(=O)O)NC(=O)[C@H](Cc2c[nH]c3ccccc23)NC(=O)[C@H](CCCNC(=N)N)NC(=O)[C@@H](Cc2ccccc2)NC(=O)[C@H](Cc2c[nH]cn2)NC1=O [bremelanotide, Ac-Nle-cyclo(-Asp-His-D-Phe-Arg-Trp-Lys)-OH]
Pulse: treatment group difference (from placebo) in mean change ([1]; 0.75 mg SC, interval 0-4 h, V5): −5.2*
DBP: treatment group difference (from placebo) in mean change ([1]; 0.75 mg SC, interval 0-4 h, V5): 1.5
SBP: treatment group difference (from placebo) in mean change ([1]; 0.75 mg SC, interval 0-4 h, V5): 1.8
HR-BP Product: treatment group difference (from placebo) in mean change ([1]; 0.75 mg SC, interval 0-4 h, V5): −492.8*
Pulse: treatment group difference (from placebo) in mean change ([1]; 0.75 mg SC, interval 0-4 h, V7): −4.8*
DBP: treatment group difference (from placebo) in mean change ([1]; 0.75 mg SC, interval 0-4 h, V7): 0.6
SBP: treatment group difference (from placebo) in mean change ([1]; 0.75 mg SC, interval 0-4 h, V7): 1.1
HR-BP Product: treatment group difference (from placebo) in mean change ([1]; 0.75 mg SC, interval 0-4 h, V7): −491.9*
Pulse: treatment group difference (from placebo) in mean change [1, 5]: −2.2*
DBP: treatment group difference (from placebo) in mean change [1, 5]: 1.1*
SBP: treatment group difference (from placebo) in mean change [1, 5]: 1.1
HR-BP Product: treatment group difference (from placebo) in mean change [1, 5]: −187.7
Pulse: treatment group difference (from placebo) in mean change [1, 6]: −1.6
DBP: treatment group difference (from placebo) in mean change [1, 6]: 1.3*
SBP: treatment group difference (from placebo) in mean change [1, 6]: 1.5
HR-BP Product: treatment group difference (from placebo) in mean change [1, 6]: −82.3
Pulse: treatment group difference (from placebo) in mean change ([1]; 0.75 mg SC, interval 4-8 h, V5): −6.2*
DBP: treatment group difference (from placebo) in mean change ([1]; 0.75 mg SC, interval 4-8 h, V5): 1.3
SBP: treatment group difference (from placebo) in mean change ([1]; 0.75 mg SC, interval 4-8 h, V5): 0.9
HR-BP Product: treatment group difference (from placebo) in mean change ([1]; 0.75 mg SC, interval 4-8 h, V5): −676.5*
Pulse: treatment group difference (from placebo) in mean change ([1]; 0.75 mg SC, interval 4-8 h, V7): −5.5*
DBP: treatment group difference (from placebo) in mean change ([1]; 0.75 mg SC, interval 4-8 h, V7): 1.7
SBP: treatment group difference (from placebo) in mean change ([1]; 0.75 mg SC, interval 4-8 h, V7): 1.6
HR-BP Product: treatment group difference (from placebo) in mean change ([1]; 0.75 mg SC, interval 4-8 h, V7): −503.3*
Pulse: treatment group difference (from placebo) in mean change [1, 7]: −0.4
DBP: treatment group difference (from placebo) in mean change [1, 7]: 1.0
SBP: treatment group difference (from placebo) in mean change [1, 7]: 0.9
HR-BP Product: treatment group difference (from placebo) in mean change [1, 7]: 5.2
Pulse: treatment group difference (from placebo) in mean change [1, 8]: 0.1
DBP: treatment group difference (from placebo) in mean change [1, 8]: 1.3*
SBP: treatment group difference (from placebo) in mean change [1, 8]: 1.6
HR-BP Product: treatment group difference (from placebo) in mean change [1, 8]: 114.9
Pulse: treatment group difference (from placebo) in mean change ([1]; 1.25 mg SC, interval 0-4 h, V5): −5.2*
DBP: treatment group difference (from placebo) in mean change ([1]; 1.25 mg SC, interval 0-4 h, V5): 3.0*
SBP: treatment group difference (from placebo) in mean change ([1]; 1.25 mg SC, interval 0-4 h, V5): 2.4*
HR-BP Product: treatment group difference (from placebo) in mean change ([1]; 1.25 mg SC, interval 0-4 h, V5): −436.4*
Pulse: treatment group difference (from placebo) in mean change ([1]; 1.25 mg SC, interval 0-4 h, V7): −6.1*
DBP: treatment group difference (from placebo) in mean change ([1]; 1.25 mg SC, interval 0-4 h, V7): 2.2*
SBP: treatment group difference (from placebo) in mean change ([1]; 1.25 mg SC, interval 0-4 h, V7): 2.1*
HR-BP Product: treatment group difference (from placebo) in mean change ([1]; 1.25 mg SC, interval 0-4 h, V7): −583.3*
Pulse: treatment group difference (from placebo) in mean change [1, 9]: −2.9*
DBP: treatment group difference (from placebo) in mean change [1, 9]: 1.9*
SBP: treatment group difference (from placebo) in mean change [1, 9]: 1.1
HR-BP Product: treatment group difference (from placebo) in mean change [1, 9]: −265.9
Pulse: treatment group difference (from placebo) in mean change [1, 10]: −2.6*
DBP: treatment group difference (from placebo) in mean change [1, 10]: 1.7*
SBP: treatment group difference (from placebo) in mean change [1, 10]: 1.6*
HR-BP Product: treatment group difference (from placebo) in mean change [1, 10]: −206.5
Pulse: treatment group difference (from placebo) in mean change ([1]; 1.25 mg SC, interval 4-8 h, V5): −6.1*
DBP: treatment group difference (from placebo) in mean change ([1]; 1.25 mg SC, interval 4-8 h, V5): 2.2*
SBP: treatment group difference (from placebo) in mean change ([1]; 1.25 mg SC, interval 4-8 h, V5): 1.4
HR-BP Product: treatment group difference (from placebo) in mean change ([1]; 1.25 mg SC, interval 4-8 h, V5): −621.0*
Pulse: treatment group difference (from placebo) in mean change ([1]; 1.25 mg SC, interval 4-8 h, V7): −6.5*
DBP: treatment group difference (from placebo) in mean change ([1]; 1.25 mg SC, interval 4-8 h, V7): 0.9
SBP: treatment group difference (from placebo) in mean change ([1]; 1.25 mg SC, interval 4-8 h, V7): 1.3*
HR-BP Product: treatment group difference (from placebo) in mean change ([1]; 1.25 mg SC, interval 4-8 h, V7): −669.7*
Pulse: treatment group difference (from placebo) in mean change [1, 11]: −1.5
DBP: treatment group difference (from placebo) in mean change [1, 11]: 1.4*
SBP: treatment group difference (from placebo) in mean change [1, 11]: 0.7
HR-BP Product: treatment group difference (from placebo) in mean change [1, 11]: −127.4
Pulse: treatment group difference (from placebo) in mean change [1, 12]: −0.7
DBP: treatment group difference (from placebo) in mean change [1, 12]: 1.7*
SBP: treatment group difference (from placebo) in mean change [1, 12]: 1.5*
HR-BP Product: treatment group difference (from placebo) in mean change [1, 12]: 4.2
Pulse: treatment group difference (from placebo) in mean change ([1]; 1.75 mg SC, interval 0-4 h, V5): −4.6*
DBP: treatment group difference (from placebo) in mean change ([1]; 1.75 mg SC, interval 0-4 h, V5): 3.2*
SBP: treatment group difference (from placebo) in mean change ([1]; 1.75 mg SC, interval 0-4 h, V5): 3.1*
HR-BP Product: treatment group difference (from placebo) in mean change ([1]; 1.75 mg SC, interval 0-4 h, V5): −305.9
Pulse: treatment group difference (from placebo) in mean change ([1]; 1.75 mg SC, interval 0-4 h, V7): −4.7*
DBP: treatment group difference (from placebo) in mean change ([1]; 1.75 mg SC, interval 0-4 h, V7): 2.6*
SBP: treatment group difference (from placebo) in mean change ([1]; 1.75 mg SC, interval 0-4 h, V7): 2.5*
HR-BP Product: treatment group difference (from placebo) in mean change ([1]; 1.75 mg SC, interval 0-4 h, V7): −375.4*
Pulse: treatment group difference (from placebo) in mean change [1, 13]: −2.2*
DBP: treatment group difference (from placebo) in mean change [1, 13]: 1.9*
SBP: treatment group difference (from placebo) in mean change [1, 13]: 1.6
HR-BP Product: treatment group difference (from placebo) in mean change [1, 13]: −139.1
Pulse: treatment group difference (from placebo) in mean change [1, 14]: −2.2*
DBP: treatment group difference (from placebo) in mean change [1, 14]: 1.8*
SBP: treatment group difference (from placebo) in mean change [1, 14]: 1.3
HR-BP Product: treatment group difference (from placebo) in mean change [1, 14]: −184.1
Pulse: treatment group difference (from placebo) in mean change ([1]; 1.75 mg SC, interval 4-8 h, V5): −6.6*
DBP: treatment group difference (from placebo) in mean change ([1]; 1.75 mg SC, interval 4-8 h, V5): 2.3*
SBP: treatment group difference (from placebo) in mean change ([1]; 1.75 mg SC, interval 4-8 h, V5): 2.1
HR-BP Product: treatment group difference (from placebo) in mean change ([1]; 1.75 mg SC, interval 4-8 h, V5): −608.1*
Pulse: treatment group difference (from placebo) in mean change ([1]; 1.75 mg SC, interval 4-8 h, V7): −6.6*
DBP: treatment group difference (from placebo) in mean change ([1]; 1.75 mg SC, interval 4-8 h, V7): 2.2*
SBP: treatment group difference (from placebo) in mean change ([1]; 1.75 mg SC, interval 4-8 h, V7): 2.2
HR-BP Product: treatment group difference (from placebo) in mean change ([1]; 1.75 mg SC, interval 4-8 h, V7): −624.5*
Pulse: treatment group difference (from placebo) in mean change [1, 15]: −0.8
DBP: treatment group difference (from placebo) in mean change [1, 15]: 1.4*
SBP: treatment group difference (from placebo) in mean change [1, 15]: 0.9
HR-BP Product: treatment group difference (from placebo) in mean change [1, 15]: −23.7
Pulse: treatment group difference (from placebo) in mean change [1, 16]: −0.5
DBP: treatment group difference (from placebo) in mean change [1, 16]: 1.4
SBP: treatment group difference (from placebo) in mean change [1, 16]: 0.6
HR-BP Product: treatment group difference (from placebo) in mean change [1, 16]: −31.3
maximal change in systolic pressure ([1]; 1.75 mg dosing group, average of Visits 5 and 7): 3.15 mm Hg
change in blood pressure ([1]; drug treated subjects, predominantly within 4 hours of dosing): ~2 mm Hg
maximum plasma concentration level [2, 17]: 207.0 ng/mL
minimum plasma concentration level [2, 17]: 0.0 ng/mL
% CV of plasma concentration ([2]; postmenopausal subjects): 73.5%
% CV of Cmax (plasma concentration) ([2]; premenopausal women, 30 minutes post dosing): 58.6%
level at 0.5 h ([2]; female, human, plasma, inhaled or intranasal, postmenopausal subjects): 93.2 ± 68.5 ng/mL
time to quantifiable concentrations in plasma [3]: ≤ 15 min
subjects experiencing vomiting (mild or moderate) ([4]; 7.5 mg dose level): 1 of 6
subjects experiencing vomiting (mild or moderate) ([4]; 5-mg dose level): 1 of 6
subjects experiencing vomiting (mild or moderate) ([4]; 10-mg dose level): 3 of 6
tolerability ([4]; single subcutaneous doses of 4 and 6 mg, male subjects with ED and preexisting hypertension): improved tolerability
